Values of other authors as cited in patent US7655212B2, “Production of silver sulfate grains using a fluorinated additive” (Eastman Kodak Company, priority 2008, dated 2010).

Legend:
Conditions in all cases: in polymethylmethacrylate bone cement at 0.5% concentration
Staphylococcus aureus = tested on: Staphylococcus aureus
Pseudomonas aeruginosa = tested on: Pseudomonas aeruginosa
Escherichia coli = tested on: Escherichia coli

silver oxide
significantly inhibit: inhibition of bacterial growth of Staphylococcus aureus (Staphylococcus aureus) | inhibition of bacterial growth of Pseudomonas aeruginosa (Pseudomonas aeruginosa) | inhibition of bacterial growth of Escherichia coli (Escherichia coli)

[Cl][Ag] [Silver chloride]
significantly inhibit: inhibition of bacterial growth of Staphylococcus aureus (Staphylococcus aureus) | inhibition of bacterial growth of Pseudomonas aeruginosa (Pseudomonas aeruginosa) | inhibition of bacterial growth of Escherichia coli (Escherichia coli)

O=S(=O)([O-])[O-].[Ag+].[Ag+] [silver sulfate]
significantly inhibit: inhibition of bacterial growth of Staphylococcus aureus (Staphylococcus aureus) | inhibition of bacterial growth of Pseudomonas aeruginosa (Pseudomonas aeruginosa) | inhibition of bacterial growth of Escherichia coli (Escherichia coli)
